Data taken from the NIST ThermoML archive (doi:10.1016/j.jct.2013.12.025).

Assay: refractive index (Na D-line) (dimensionless); xn = mol fraction of the nth substance listed
Conditions: 101 kPa, Liquid, Standard Abbe refractometry

C=C[Si](C)(C)O[Si](C)(C)C=C [1,3-diethenyl-1,1,3,3-tetramethyldisiloxane] + O=[N+]([O-])c1ccccc1
refractive index
Conditions | 283.15 K | 288.15 K | 293.15 K
x1 = 0.05 | 1.54466 | 1.54219 | 1.5397
x1 = 0.1 | 1.53289 | 1.53042 | 1.52796
x1 = 0.15 | 1.52202 | 1.51955 | 1.51705
x1 = 0.2 | 1.51193 | 1.50945 | 1.50694
x1 = 0.25 | 1.50266 | 1.50017 | 1.49764
x1 = 0.3 | 1.49408 | 1.49154 | 1.48901
x1 = 0.3508 | 1.48595 | 1.48341 | 1.48085
x1 = 0.4001 | 1.47862 | 1.47608 | 1.47352
x1 = 0.4501 | 1.4717 | 1.46914 | 1.46659
x1 = 0.4999 | 1.46522 | 1.46267 | 1.46009
x1 = 0.55 | 1.45917 | 1.45661 | –
x1 = 0.6001 | 1.45344 | 1.45088 | –
x1 = 0.6487 | 1.44824 | 1.44565 | –
x1 = 0.6999 | 1.44306 | 1.44044 | –
x1 = 0.7499 | 1.43821 | 1.43565 | –
x1 = 0.7999 | 1.4337 | 1.43109 | –
x1 = 0.8497 | 1.42937 | 1.42677 | –
x1 = 0.9 | 1.42527 | 1.42262 | –
x1 = 0.9499 | 1.42134 | 1.4187 | –
x1 = 1 | 1.4176 | 1.41495 | –
